We go through 10 molecules from ChEMBL document CHEMBL5046225, “Discovery and Optimization of Orally Bioavailable Phthalazone and Cinnolone Carboxylic Acid Derivatives as S1P2 Antagonists against Fibrotic Diseases” (J Med Chem, 2021).

In brackets after ≈: the same amount, converted by molar mass.

The target of data set [1] is Sphingosine 1-phosphate receptor 1 (Homo sapiens, UniProt P21453). The data set is described as follows: Antagonist activity at human S1P1 receptor expressed in CHO cells assessed as inhibition of calcium flux. The data set is classed as functional, cell-based.
In data set [2] the target is T1, Sphingosine 1-phosphate receptor 2 (Homo sapiens, UniProt O95136). Briefly: Antagonist activity at human S1P2 receptor expressed in CHO cells assessed as inhibition of calcium flux.
In data set [3] the target is T1, Sphingosine 1-phosphate receptor 2. The data set is described as follows: Agonist activity at human S1P2 receptor expressed in CHO cells assessed as increase in calcium flux.
Data set [4] in a line: Lipophilicity, logD of the compound at pH 7.4 by chromatographic method. To be noted: buffer.
The target in data set [5] is T1, Sphingosine 1-phosphate receptor 2. Briefly: Antagonist activity at human S1P2 receptor expressed in CHO cells assessed as inhibition of [35S]GTPgammaS binding.
Data set [6] has the same target. Briefly: Displacement of sphingosine D-erythro [3-3H] I- phosphate from human S1P2 receptor expressed in CHO cell membrane.
Data set [7] has the same target. The data set is described as follows: Antagonist activity at S1P2 (unknown origin). The data set is classed as functional.
The nature of data set [8]: Apparent permeability across apical to basolateral side in MDCK-MDR1 cells at 10 uM incubated for 1 hr by LC-MS/MS analysis. To be noted: dog.
Data set [9] has as its target T1, Sphingosine 1-phosphate receptor 2.
A short description of data set [10]: Half life in CD1 mouse at 1 mg/kg, iv measured up to 24 hrs by LC-MS/MS analysis. To be noted: in vivo.
Data set [11] can be described thus: Thermodynamic solubility of compound at pH 7.4. To be noted: buffer.
A short description of another data set: cells. To be noted: Homo sapiens, HFL1.
Data set [12] is described as follows: Efflux ratio of apparent permeability across apical to basolateral side in MDCK-MDR1 cells at 10 uM incubated for 1 hr by LC-MS/MS analysis. To be noted: dog.
Data set [13] can be described thus: Volume of distribution at steady state in CD1 mouse at 1 mg/kg, iv measured up to 24 hrs by LC-MS/MS analysis. To be noted: in vivo.
The next data set in a line: in vivo. To be noted: CD1, mouse, po, 5 mg/kg.
Data set [14] in a line: Apparent permeability across apical to basolateral side in human Caco-2 cells at pH 6.5 at 10 uM incubated for 60 mins by UHPLC analysis. To be noted: Caco-2, pH 6.5.
Data set [15] in a line: Efflux ratio of apparent permeability across apical to basolateral side in human Caco-2 cells at pH 6.5 at 10 uM incubated for 60 mins by UHPLC analysis. To be noted: Caco-2, pH 6.5.
Data set [16] is described as follows: Unbound plasma concentration in CD1 mouse at 5 mg/kg, po or 1 mg/kg, iv measured up to 24 hrs by LC-MS/MS analysis.
Data set [17] deals with T1, Sphingosine 1-phosphate receptor 2. This is another data set of the same source.
The next data set has as its target T2, PXR (Homo sapiens, UniProt O75469).
T2 sequence (O75469 whole entry): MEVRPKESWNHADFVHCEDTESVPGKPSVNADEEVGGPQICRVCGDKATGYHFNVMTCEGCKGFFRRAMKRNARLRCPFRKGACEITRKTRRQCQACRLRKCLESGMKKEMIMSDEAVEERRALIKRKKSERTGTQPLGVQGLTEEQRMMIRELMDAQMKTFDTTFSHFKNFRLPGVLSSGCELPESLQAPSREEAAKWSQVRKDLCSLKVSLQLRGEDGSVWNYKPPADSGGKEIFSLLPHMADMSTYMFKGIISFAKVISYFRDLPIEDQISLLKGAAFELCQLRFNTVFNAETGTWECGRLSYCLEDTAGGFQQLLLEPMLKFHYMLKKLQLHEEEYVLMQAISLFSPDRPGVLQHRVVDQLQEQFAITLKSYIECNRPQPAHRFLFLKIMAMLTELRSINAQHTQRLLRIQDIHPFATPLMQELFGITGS
The data set is described as follows: Activation of PXR in human DPX2 cells at 10 uM incubated for 24 hrs relative to control. The data set is classed as ADME, cell-based. To be noted: read-out: Activity.

The target of the next data set is Cytochrome P450 3A4 (Homo sapiens, UniProt P08684). Briefly: Induction of CYP3A4 in human cryopreserved hepatocytes assessed as mRNA expression at 10 uM incubated for 72 hrs relative to control. In kind it is ADME, cell-based, Hepatocyte.
The next data set deals with CYP450 (Homo sapiens, UniProt P04798+P05177+P05181+P08684+P10632+P10635+P11509+P11712+P13584+P20813+P20815+P20853+P24462+P24903+P33260+P33261+P51589+P78329+P98187+Q02928+Q08477+Q16678+Q16696+Q5TCH4+Q6VVX0+Q7Z449+Q8TAV3+Q96SQ9+Q9HB55). Briefly: Inhibition of CYP450 in human liver microsomes. In kind it is ADME.

T1 sequence (O95136 whole entry): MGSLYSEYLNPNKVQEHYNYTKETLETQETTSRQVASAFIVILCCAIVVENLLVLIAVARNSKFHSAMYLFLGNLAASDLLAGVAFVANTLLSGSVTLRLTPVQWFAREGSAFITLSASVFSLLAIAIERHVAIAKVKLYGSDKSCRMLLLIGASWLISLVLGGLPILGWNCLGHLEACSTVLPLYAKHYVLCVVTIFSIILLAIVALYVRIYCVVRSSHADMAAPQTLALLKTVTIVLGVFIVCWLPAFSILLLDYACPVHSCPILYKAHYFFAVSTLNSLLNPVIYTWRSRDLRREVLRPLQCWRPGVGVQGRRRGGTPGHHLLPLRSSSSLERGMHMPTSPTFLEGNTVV
Chain of Sphingosine 1-phosphate receptor 1 (P21453 whole entry): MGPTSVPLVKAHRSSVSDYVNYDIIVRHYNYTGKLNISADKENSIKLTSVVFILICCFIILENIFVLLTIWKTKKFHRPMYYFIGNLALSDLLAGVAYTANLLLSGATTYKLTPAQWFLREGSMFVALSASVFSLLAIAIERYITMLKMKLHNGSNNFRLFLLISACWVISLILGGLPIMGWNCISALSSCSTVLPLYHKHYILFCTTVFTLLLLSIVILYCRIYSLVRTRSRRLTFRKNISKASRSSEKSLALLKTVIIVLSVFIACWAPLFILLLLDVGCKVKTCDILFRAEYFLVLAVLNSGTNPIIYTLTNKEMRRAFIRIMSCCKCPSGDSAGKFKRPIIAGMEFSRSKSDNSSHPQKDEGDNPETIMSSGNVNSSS
Chain of Cytochrome P450 3A4 (P08684 whole entry): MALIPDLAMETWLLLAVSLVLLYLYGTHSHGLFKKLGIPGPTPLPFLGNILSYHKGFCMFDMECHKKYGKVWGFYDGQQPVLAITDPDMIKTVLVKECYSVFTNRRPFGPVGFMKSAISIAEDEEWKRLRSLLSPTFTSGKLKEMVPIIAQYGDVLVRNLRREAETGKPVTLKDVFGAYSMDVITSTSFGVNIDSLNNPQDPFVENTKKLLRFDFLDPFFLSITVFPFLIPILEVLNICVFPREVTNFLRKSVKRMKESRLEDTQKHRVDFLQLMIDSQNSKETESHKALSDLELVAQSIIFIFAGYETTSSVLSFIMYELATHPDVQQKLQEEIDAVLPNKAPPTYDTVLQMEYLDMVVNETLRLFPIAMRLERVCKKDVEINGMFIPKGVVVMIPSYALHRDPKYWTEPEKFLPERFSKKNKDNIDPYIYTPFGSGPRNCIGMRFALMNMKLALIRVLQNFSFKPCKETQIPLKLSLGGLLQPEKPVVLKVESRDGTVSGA

For the molecule `COc1cc(OC)c(NC(=O)Cc2cn(C)c3ccccc23)cc1Cl`, the half-maximal inhibitory concentration (IC50) was more than 19.9 µM in data set [1]; more than 8.13 µM in data set [2]; more than 23.3 µM in [3]; 19.2 µM in data set [5]; 3.79 µM in data set [6]. Further, the chromatographic logD in [4] was determined as 5.91.
As for `COc1cc(OC)c(NC(=O)Cc2cn(CC(=O)O)c3ccccc23)cc1Cl`, the half-maximal inhibitory concentration (IC50) in data set [1] is more than 19.9 µM; in data set [2], more than 6.64 µM; in data set [3], more than 23.3 µM; in [5], 17.7 µM; in data set [6], 10.7 µM. Besides, in data set [4], the chromatographic logD is 2.13.
For the molecule `COc1cc(OC)c(NC(=O)Cn2nc(CC(=O)O)c3ccccc32)cc1Cl`, the IC50 in [1] was more than 19.9 µM; in data set [2] it was 3.36 µM; in [3], more than 23.3 µM; in data set [5] it was 8.98 µM; in [6], 2.01 µM. The molecule also returned a chromatographic logD in data set [4] of 1.86.
`Cc1nn(C)c2nc(NNC(=O)Nc3cc(Cl)nc(Cl)c3)cc(C(C)C)c12`: the IC50 in [7] turned out to be 0.017 µM.
For the molecule `COc1cc(OC)c(NC(=O)Cc2nn(CC(=O)O)c(=O)c3ccccc23)cc1Cl`, the IC50 in data set [1] was more than 19.9 µM.
Regarding `CCn1nc(CC(=O)Nc2ccc(OC(F)(F)F)c(Cl)c2)c2ccccc2c1=O`, the results for the IC50 in [2] and in data set [5] were 0.199 µM and 0.473 µM, respectively. This molecule also showed a chromatographic logD in data set [4] of 5.42.
As for `COc1ccc(NC(=O)Cc2nn(CC(=O)O)c(=O)c3ccccc23)c(OC)c1`, the IC50 in data set [2] is more than 19.9 µM; in [3], more than 23.3 µM. In addition, in data set [4], the chromatographic logD stood at 1.13.
In the case of `CC(C(=O)O)c1nn(Cc2cn3cc(OCC4CC4)c(C(F)(F)F)cc3n2)c2ccccc2c1=O` (racemic), the values for the Papp A→B at 1 h, 10 µM in [8] and in data set [14] were 2.5 ×10⁻⁶ cm/s and 15 ×10⁻⁶ cm/s, respectively. The IC50 in data set [9] was 0.056 µM; in [2], 0.0034 µM; in the data set “cells”, 0.0007 µM; in [5], 0.051 µM; in [17], 0.005 µM. Moreover, in [10], the half-life at 24 h is 1.9 h. Further, the solubility (thermodynamic) in [11] is 221 µg/mL (≈ 454 µM). The efflux ratio at 1 h, 10 µM in [12] was found to be 3.7; in [15], 0.4. The Vd at 24 h in data set [13] was 0.66 L/kg. The molecule further showed a chromatographic logD in data set [4] of 2.99. In the data set “in vivo”, this molecule had a Cmax at 24 h of 3520 ng/mL. The fraction unbound at 24 h in data set [16] amounted to 0.007.
Turning to `CCOc1cc2cn(Cc3nn(CC(=O)O)c(=O)c4ccccc34)nc2cc1Cl`, the IC50 in data set [9] was 1.62 µM; in [2] it was 0.149 µM; in “cells”, 0.034 µM; in [5], 0.113 µM; in data set [17] it was 0.023 µM.
In the case of `C[C@H](C(=O)O)n1nc(Cn2cc3cc(OCC4CC4)c(Cl)cc3n2)c2ccccc2c1=O`, the activity at 24 h, 10 µM on PXR came out at 5.7%. Moreover, at Cytochrome P450 3A4, the Activity stood at 4.4%. For the same molecule, the IC50 at CYP450 is more than 100 µM.
